Data on four compounds can be found in patent publication US12428432B2, “Thienopyrimidine derivatives having stereo configurations and use thereof in medicine” (SUNSHINE LAKE PHARMA CO., LTD., priority 2019, dated 2025).

Where two headings read alike, the source gives them in different places.

Data set [1] in a line: Liver microsome stability test. The following applies: mouse liver microsomes, Conc. 1 μM; for half-life at 1 μM: male, CD-1; for Remaining (%) (NCF = 60 min): no cofactor (buffer instead of NADPH); for Remaining (%) (T = 60 min): with NADPH. The class given is in vitro ADME. On the procedure:
Male CD-1 mouse liver microsomes, purchased from BD Gentest.
Preparation of stock solution: a certain amount of test compound of A13 and Example 1 were weighed to prepare a stock solution with a concentration of 10 mM with DMSO, and stored in a refrigerator at −20° C.
Preparation of NADPH solution: a certain amount of NADPH to be tested was weighed and prepared a solution with a concentration of 6 mM with 0.1 M potassium phosphate buffer (5 mg of NADPH was weighed and added to 1 mL of potassium phosphate buffer, the concentration was equivalent to 6 mM).
Preparation of compound dosing solution: 100 μM dosing solution: 5 μL of 10 mM stock solution was added to 495 μL of acetonitrile:water (1:1); 30 μM dosing solution: 60 μL of 100 μM dosing solution was added to 140 μL of 0.1 M potassium phosphate buffer; 1.5 μM dosing solution: 25 μL of 30 μM dosing solution and 18.8 μL (20 mg/mL) of liver microsomes were added to 456.2 μL of 0.1 M potassium phosphate buffer, one for each species.
μ30 μL of 1.5 μM dosing solution of the compound was added to a 96-well plate, 150 μL or 200 μL of acetonitrile internal standard was added immediately to the plate, then 15 μL of NADPH solution (6 mM) was added to the plate, the mixture was mixed well and placed in a 4° C. refrigerator as the initial 0 point sample, each drug was made two holes in parallel.
30 μL of 1.5 μM dosing solution was added to positions set at different time points in the 96-well plate, each drug was made two holes in parallel, and the pleat was preheated at 37° C. for 10 min.
After pre-incubation, 15 μL of NADPH solution (6 mM) was added to the well set at the time point of 60 min, at the time point of NCF60, 15 μL of potassium phosphate buffer salt solution was added at the same time to start the reaction and start timing. Then after 40 min, 15 μL of NADPH solution was added to the well set at 20 min. After 20 min, the incubation was over. 150 or 200 μL of acetonitrile internal standard was added to the positions set at all time points. The plate was centrifuged at 4000 rpm for 5 min, 50 μL supernatant was taken out and diluted with 150 μL water for sample analysis.
The initial 0 point was used as 100%, the relative content of the drug at each time point was calculated. GraphPad Prism5 software was used to plot the “relative content of the drug” versus “incubation time” to calculate the half-life of the drug and calculate the intrinsic clearance rate.
On the technique in general: Liver microsomes are vesicles of endoplasmic reticulum, rich in cytochrome P450 enzymes.

Data set [2] is described as follows: Tissue distribution (liver/plasma) in mice after intragastric administration, LC-MS/MS. The format is in vivo, C57BL/6 mice. The following applies: C57BL/6 male mice; for Kp at 0.5 h / Kp at 1 h / Kp at 2 h / concentration at 0.5 h / concentration at 1 h / concentration at 2 h: mouse, oral, 5 ml/kg; for Kp at 0.5 h / Kp at 1 h / Kp at 2 h: liver/plasma; for Kp at 0.5 h: read-out: Partition ratios of liver and plasma 0.5 h; for Kp at 1 h: read-out: Partition ratios of liver and plasma 1 h; for Kp at 2 h: read-out: Partition ratios of liver and plasma 2 h. On the procedure: C57BL/6 mice were used as the test animals, the LC-MS/MS method was used to determine the drug concentration in plasma and liver at different times after the mice were administered intragastrically the compounds of Examples 1 to 3 and A13. Pharmacokinetic properties of the compounds of the present invention in mice were studied.
The prescriptions of A13, Example 1 and Example 2 were: 5% DMSO+5% Kolliphor HS15+90% Saline
The prescription of Example 3 was: 10% DMSO+10% Kolliphor HS15+80% Saline
Healthy adult C57BL/6 male mice, purchased from Hunan Slack Jingda Experimental Animal Co., Ltd., with an animal weight of 18-24 g, were administered intragastrically at a dosage of […] and a volume of 10 ml/kg.
Bloods were collected from the orbit at different time points, and the whole blood samples were placed in an anticoagulation tube containing EDTA-K2; the plasma was separated by centrifugation (centrifugation conditions: 12000 rpm, 2 min) and the upper plasma sample was collected and placed into a sample tube.
Animals were dissected and collected livers at different time points, a certain mass of liver tissue was weighed, 5 times the volume (m/V) of methanol solution was added to the homogenization tube, then homogenized at 60 hz for 2 minutes and centrifuged at 4° C. for 2 minutes, the supernatant was taken to obtain the liver homogenate.
LC-MS/MS was used to analyze the content of the test compounds in the plasma and liver of the mice after the compounds were administered intragastrically.

Data set [3] has as its target ACC1 (Homo sapiens (Human), UniProt Q13085). The experiment in a line: In vitro inhibitory activity test of acetyl-CoA carboxylase (ADP-Glo Kinase Analysis), ACC1. The format is biochemical. On the procedure: (§1) The in vitro inhibitory effects of the compounds on ACC1 or ACC2 were tested by ADP-Glo™ Kinase Analysis Kit from Promega Company. The ADP-Glo™ Kinase Analysis was a luminescent ADP detection analysis, which was used to measure enzyme activity by quantifying the amount of ADP produced during the enzyme reaction. The analysis was performed with two steps: first, after the enzyme reaction, ADP-Glo™ reagent was added to stop the reaction and deplete the remaining ATP; then, a kinase detection reagent was added to simultaneously convert ADP to ATP and the newly synthesized ATP was measured using the luciferase/luciferin reaction. The luminescence can be correlated to the ADP concentration by using the ATP to ADP conversion curve.
(§2) The specific steps are as follows: • a. 4.5 μL/well of ACC1/ACC2 working solution (2.22 nM) was added to a 384-well reaction plate (PerkinElmer, 6007290); • b. The compound (10 mM stock solution) was diluted 500 times to 20 μM with 100% DMSO, and diluted in a ratio of 1:3 in a 384 dilution plate (3657, corning). The gradient concentrations of the compound were 20, 6.67, 2.22 0.74, 0.25, 0.082, 0.027, 0.009, 0.003, 0.001, 0 μM; • c. 0.5 μL/well of the compound solution (prepared in step b) was transferred to the 384-well reaction plate (prepared in step a), then plate was centrifuged at 1000 rpm and incubated at 25° C. for 15 minutes; • d. […] Relative luminescence unit (RLU) was read on an Envision multifunction plate reader. […]
(§3) The average values of each concentration and the data of the positive and negative controls were calculated, as well as the standard deviation. The percentage of inhibition was calculated by the formula: 100×(average negative control−compound)/(average negative control−average positive control). The IC50 for each compound was calculated by fitting the data with a nonlinear regression equation: Y=Bottom+(Top−Bottom)/(1+10^((Log IC50−X)×HillSlope)), wherein X is the log of compound concentration and Y is the percentage of inhibition.

Data set [4] addresses ACC2 (Homo sapiens (Human), UniProt O00763). The experiment in a line: In vitro inhibitory activity test of acetyl-CoA carboxylase (ADP-Glo Kinase Analysis), ACC2. The format is biochemical. As to the method:
as §1, §2, §3

Where [5] appears, read: liver, read-out: Average tissue concentrations (liver) 0.5 h.
Where [6] appears, read: liver, 1 h, read-out: Average tissue concentrations (liver) 1 h.
Setting [7] is: liver, read-out: Average tissue concentrations (liver) 2 h.
Setting [8] is: plasma, read-out: Average concentration (plasma) 0.5 h.
Setting [9] is: plasma, 1 h, read-out: Average concentration (plasma) 1 h.
[10] abbreviates: plasma, read-out: Average concentration (plasma) 2 h.

Chain of ACC2 (O00763 whole entry, species assumed): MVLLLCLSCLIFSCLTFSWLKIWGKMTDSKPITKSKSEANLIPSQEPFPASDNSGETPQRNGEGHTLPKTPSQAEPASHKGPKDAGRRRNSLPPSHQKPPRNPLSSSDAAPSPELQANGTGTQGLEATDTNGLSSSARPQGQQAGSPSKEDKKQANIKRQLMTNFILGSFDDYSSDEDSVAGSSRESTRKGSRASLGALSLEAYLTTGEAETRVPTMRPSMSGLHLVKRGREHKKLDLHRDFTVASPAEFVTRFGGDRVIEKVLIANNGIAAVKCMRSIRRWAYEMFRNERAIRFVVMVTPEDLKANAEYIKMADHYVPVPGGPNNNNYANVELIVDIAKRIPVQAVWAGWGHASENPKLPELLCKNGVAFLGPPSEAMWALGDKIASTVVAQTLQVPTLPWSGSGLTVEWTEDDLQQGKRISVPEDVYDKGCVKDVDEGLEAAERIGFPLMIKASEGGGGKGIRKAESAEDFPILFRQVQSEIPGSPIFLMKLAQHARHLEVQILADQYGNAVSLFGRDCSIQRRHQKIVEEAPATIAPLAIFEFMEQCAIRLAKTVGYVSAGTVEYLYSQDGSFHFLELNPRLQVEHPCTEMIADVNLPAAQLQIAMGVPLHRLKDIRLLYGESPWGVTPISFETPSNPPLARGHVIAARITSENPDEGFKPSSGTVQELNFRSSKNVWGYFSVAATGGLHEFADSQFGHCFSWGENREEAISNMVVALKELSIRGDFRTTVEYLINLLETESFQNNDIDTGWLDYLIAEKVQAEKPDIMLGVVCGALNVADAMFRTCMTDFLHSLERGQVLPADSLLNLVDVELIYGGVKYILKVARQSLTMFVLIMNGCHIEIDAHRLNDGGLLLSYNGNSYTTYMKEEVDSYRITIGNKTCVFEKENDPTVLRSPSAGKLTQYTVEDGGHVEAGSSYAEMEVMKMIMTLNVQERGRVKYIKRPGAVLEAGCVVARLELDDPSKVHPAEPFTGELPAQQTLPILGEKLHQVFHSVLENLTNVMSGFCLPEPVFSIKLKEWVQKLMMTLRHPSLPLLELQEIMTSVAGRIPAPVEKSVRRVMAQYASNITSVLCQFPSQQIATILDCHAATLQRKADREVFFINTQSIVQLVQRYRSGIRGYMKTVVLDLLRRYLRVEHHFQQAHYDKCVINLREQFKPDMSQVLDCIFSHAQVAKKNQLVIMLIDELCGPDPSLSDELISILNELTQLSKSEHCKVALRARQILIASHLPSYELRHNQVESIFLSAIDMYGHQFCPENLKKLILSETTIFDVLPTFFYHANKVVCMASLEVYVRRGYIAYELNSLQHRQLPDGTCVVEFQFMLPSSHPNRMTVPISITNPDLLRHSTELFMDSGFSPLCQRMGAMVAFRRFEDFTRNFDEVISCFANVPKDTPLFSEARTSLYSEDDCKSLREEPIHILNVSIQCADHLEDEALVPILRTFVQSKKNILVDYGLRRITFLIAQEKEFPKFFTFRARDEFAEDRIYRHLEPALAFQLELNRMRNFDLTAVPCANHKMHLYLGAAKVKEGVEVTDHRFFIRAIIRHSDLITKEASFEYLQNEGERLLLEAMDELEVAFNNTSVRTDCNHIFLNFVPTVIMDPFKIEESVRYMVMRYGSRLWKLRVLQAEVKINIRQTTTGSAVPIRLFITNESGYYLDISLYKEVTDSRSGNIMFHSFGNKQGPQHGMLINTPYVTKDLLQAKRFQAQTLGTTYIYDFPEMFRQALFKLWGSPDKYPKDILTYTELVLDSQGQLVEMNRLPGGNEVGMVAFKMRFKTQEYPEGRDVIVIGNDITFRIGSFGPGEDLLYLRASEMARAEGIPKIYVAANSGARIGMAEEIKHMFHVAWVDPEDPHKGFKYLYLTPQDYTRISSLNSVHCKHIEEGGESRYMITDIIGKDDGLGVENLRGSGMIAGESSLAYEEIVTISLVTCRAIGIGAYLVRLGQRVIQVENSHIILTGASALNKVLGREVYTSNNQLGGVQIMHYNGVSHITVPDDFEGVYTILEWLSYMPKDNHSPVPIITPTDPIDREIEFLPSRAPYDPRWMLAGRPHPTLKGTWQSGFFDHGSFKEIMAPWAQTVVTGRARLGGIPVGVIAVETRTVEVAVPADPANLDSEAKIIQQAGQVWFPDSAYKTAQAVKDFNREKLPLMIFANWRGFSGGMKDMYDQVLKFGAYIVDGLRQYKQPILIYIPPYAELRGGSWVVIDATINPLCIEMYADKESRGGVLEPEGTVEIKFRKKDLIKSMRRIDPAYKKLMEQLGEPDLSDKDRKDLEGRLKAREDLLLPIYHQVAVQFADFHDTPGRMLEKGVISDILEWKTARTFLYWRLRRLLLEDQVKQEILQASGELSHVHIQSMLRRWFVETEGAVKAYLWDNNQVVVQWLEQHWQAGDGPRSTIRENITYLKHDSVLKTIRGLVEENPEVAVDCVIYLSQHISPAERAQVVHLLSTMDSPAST

Regarding `COc1ccccc1C(Cn1c(=O)n(C(C)(C)C(=O)O)c(=O)c2c(C)c(-c3ncco3)sc21)OC1CC2COCC2C1` (racemic) [Example A13, reference compound], in data set [1], the half-life at 1 μM came to 1.49 h, the ClHep amounted to 60.9 mL/min/kg, the Clin vivo was determined as 36.3 mL/min/kg and the ER is listed as 0.4. In addition, in data set [1], the “Remaining (%) (NCF = 60 min)” value is on record as 81.0% and the “Remaining (%) (T = 60 min)” value worked out at 63.4%. In data set [2], the Kp at 0.5 h was found to be 86 and the Kp at 2 h is 170. Moreover, the Kp at 1 h in data set [2] (1 h) came to 130. The concentration at 0.5 h in data set [2] (setting [5]) amounted to 61500 ng/g. The concentration at 1 h in data set [2] (setting [6]) was determined as 33300 ng/g. The concentration at 2 h in data set [2] (setting [7]) was determined as 14000 ng/g. Also, the concentration at 0.5 h in data set [2] (setting [8]) turned out to be 717 ng/g. Further, the concentration at 1 h in data set [2] (setting [9]) was 249 ng/g. Further, in data set [2] (setting [10]), the concentration at 2 h is 82.8 ng/g.

With `COc1ccccc1[C@H](Cn1c(=O)n(C(C)(C)C(=O)O)c(=O)c2c(C)c(-c3ncco3)sc21)OC1C[C@H]2COC[C@@H]2C1` [Example 1, 2-[1-[(2R)-2-[[(3aR,6aR)-3,3a,4,5,6,6a-hexahydro-1H-cyclopenta[c]furan-5-yl]oxy]-2-(2-methoxyphenyl)ethyl]-5-methyl-6-oxazol-2-yl-2,4-dioxo-thieno[2,3-d]pyrimidin-3-yl]-2-methyl-propionic acid], in data set [1], the half-life at 1 μM worked out at 2.42 h, the ClHep was determined as 38.0 mL/min/kg, the Clin vivo came to 9.6 mL/min/kg and the ER worked out at 0.1. For the same compound, in data set [1], the “Remaining (%) (NCF = 60 min)” value was determined as 90.6% and the “Remaining (%) (T = 60 min)” value was 71.9%. In data set [2], the “Partition ratios of liver and plasma 0.5 h” value amounted to 190; the “Partition ratios of liver and plasma 2 h” value is on record as 600. For the same compound, the “Partition ratios of liver and plasma 1 h” value in data set [2] (1 h) was 140. In data set [2] (liver), the “Average tissue concentrations (liver) 0.5 h” value was 75000 ng/g and the “Average tissue concentrations (liver) 2 h” value is listed as 35500 ng/g. Further, in data set [2] (liver, 1 h), the “Average tissue concentrations (liver) 1 h” value is reported as 48300 ng/g. For the same compound, in data set [2] (plasma), the “Average concentration (plasma) 0.5 h” value was determined as 391 ng/g and the “Average concentration (plasma) 2 h” value was determined as 59.1 ng/g. Besides, the “Average concentration (plasma) 1 h” value in data set [2] (plasma, 1 h) is given as 336 ng/g. The IC50 in data set [3] came out at 1.42 nM. Besides, in data set [4], the IC50 stood at 3.65 nM.

For `COc1ccccc1[C@H](Cn1c(=O)n(C(C)(C)C(=O)O)c(=O)c2c(C)c(-c3ncco3)sc21)O[C@H]1C[C@H]2COC[C@H]2C1` [Example 3, 2-[1-[(2R)-2-[[(3aR,6aS)-3,3a,4,5,6,6a-hexahydro-1H-cyclopenta[c]furan-5-yl]oxy]-2-(2-methoxyphenyl)ethyl]-5-methyl-6-oxazol-2-yl-2,4-dioxo-thieno[2,3-d]pyrimidin-3-yl]-2-methyl-propionic acid], in data set [2], the “Partition ratios of liver and plasma 0.5 h” value amounted to 122; the “Partition ratios of liver and plasma 2 h” value is 104. In data set [2] (liver), the “Average tissue concentrations (liver) 0.5 h” value amounted to 75500 ng/g and the “Average tissue concentrations (liver) 2 h” value is given as 26500 ng/g. Also, in data set [2] (plasma), the “Average concentration (plasma) 0.5 h” value stood at 669 ng/g and the “Average concentration (plasma) 2 h” value is on record as 253 ng/g. In addition, the IC50 in data set [3] was determined as 0.23 nM. Besides, the 50% inhibitory concentration (IC50) in data set [4] stood at 2.43 nM.

For the compound `COc1ccccc1[C@H](Cn1c(=O)n(C(C)(C)C(=O)O)c(=O)c2c(C)c(-c3ncco3)sc21)OC1C[C@@H]2COC[C@H]2C1` [Example 2, 2-[1-[(2R)-2-[[(3aS,6aS)-3,3a,4,5,6,6a-hexahydro-1H-cyclopenta[c]furan-5-yl]oxy]-2-(2-methoxyphenyl)ethyl]-5-methyl-6-oxazol-2-yl-2,4-dioxo-thieno[2,3-d]pyrimidin-3-yl]-2-methyl-propionic acid], the Kp at 0.5 h in data set [2] was determined as 190. Moreover, in data set [2] (1 h), the Kp at 1 h turned out to be 120. For the same compound, in data set [2], the Kp at 2 h worked out at 180. Also, the values for the concentration at 0.5 h in data set [2] (setting [5]) and in data set [2] (setting [8]) were 70400 ng/g and 373 ng/g, respectively. Also, the concentration at 1 h came out at 40600 ng/g in data set [2] (setting [6]) and 351 ng/g in data set [2] (setting [9]). Further, the concentration at 2 h in data set [2] (setting [7]) was 16900 ng/g; in data set [2] (setting [10]), 96.4 ng/g. The concentration for half-maximal inhibition (IC50) in data set [3] was 1.09 nM; in data set [4] it was 3.82 nM.

What is called half-life is how long it takes for the measured level to halve. A low value points to fast loss. In general, IC50 refers to the point on the concentration scale where inhibition reaches its midpoint. A higher IC50 goes with weaker potency in that assay.
